Laboratory results as given in patent publication US20220363662A1, “COMPOUNDS AS LXR AGONISTS” (Integral Biosciences Privated Limited, priority 2021, published 2022).
pEC50, pIC50: −log10 of the molar value.

Tests used:
MDA-MB-231 = experiment: Cell viability assay (resazurin) in MDA-MB-231; format: cell-based; conditions: Homo sapiens, 96 hr exposure, read-out: MDA_MB-231 Cell IC50
Experimental: (§1) HepG2 (ATCC® HB-8065™), hepatocellular carcinoma, A549 (ATCC® CCL-185™), lung epithelial carcinoma, MCF7 (ATCC® HTB-22™), mammary gland epithelial carcinoma, MDA-MB-231 (ATCC® HTB-26™), TNBC, MiaPaCa-2 (ATCC® CRL-1420™) & Panc-1 (ATCC® CRL-1469™), pancreatic epithelial carcinoma, HCT116 (ATCC® CCL-247™), colon epithelial carcinoma and U87MG (ATCC® HTB-14™), brain epithelial carcinoma cell lines respectively were seeded in the respective medium (DMEM, Cat #10569044 with 10% FBS, Cat #16000044; Gibco for HepG2, A549, MCF7, MDA-MB-231, MiaPaCa-2, Panc-1, HCT116 and MEM, Cat #11095080 with 10% FBS for U87MG). Cells were allowed to grow at 37° C. for 24 hr in 5% CO2 (culture conditions) in a Nuaire incubator (humidified). Serially diluted compounds (100 μl) were added to the culture plate 24 hr later and the cultures were further incubated in culture conditions for 96 hr. Experiment was terminated at the completion of 96 hr exposure to the drug by replacing the medium with 100 μl of 1 mM of resazurin (R7017; Sigma) prepared in culture medium and the plates were further incubated in culture conditions for 4 hr. Fluorescence was then measured using a multimodal plate reader (Biotek Synergy Neo) at an excitation wavelength of 535 nm and emission wavelength of 590 nm to obtain relative fluorescence units. Data analysis was done by subtracting the background fluorescence (only medium blank) value from each reading and then normalizing with the vehicle control (DMSO treated cells) to obtain percent survival/proliferation. Percent survival at different doses was used to calculate IC50 by fitting the curve to the “four-parameter variable slope logistic model” using Prism Graph Pad.

LXR alpha = target: T1, LXR alpha (Homo sapiens, UniProt Q13133); experiment: LXR alpha agonist assay (Lanthascreen TR-FRET); format: biochemical; conditions: LXR alpha-LBD 2.5 nM, read-out: LXR-α EC50
T1 construct: 5 μL of 4×LXR alpha-LBD was added to each well (final concentration 2.5 nM); purchased Thermofisher PV4655
T1 sequence (Q13133 209-447 limits assumed): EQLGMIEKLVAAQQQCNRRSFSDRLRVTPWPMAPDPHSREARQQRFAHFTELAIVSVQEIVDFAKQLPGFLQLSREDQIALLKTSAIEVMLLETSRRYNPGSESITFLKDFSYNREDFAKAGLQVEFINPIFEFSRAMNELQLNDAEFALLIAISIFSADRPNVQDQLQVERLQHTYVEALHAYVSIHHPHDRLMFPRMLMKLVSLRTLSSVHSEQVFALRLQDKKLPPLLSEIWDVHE
Experimental: EC50 values of compounds against LXR alpha were determined at Integral BioSciences (India) using Lanthascreen TR-FRET (Thermofisher, Cat #PV4655). Assay was performed in a 20 μL final volume in a Black 384-well plate (Corning, Cat #4511). Dose response curve for the compounds were prepared in duplicates with starting concentration at 30 μM and a three-fold titration was performed. The reaction buffer consisted of TR-FRET Coregulator Buffer H. To the compound dilution, 5 μL of 4×LXR alpha-LBD was added to each well (final concentration 2.5 nM). An equal volume (5 μL) containing 4×Fl-D22/Tb-anti GST antibody (final concentration 250 nM/10 nM) was added to initiate the enzyme reaction and the reaction was incubated for 60 min at 22° C. after which the plates were read using BioTek Plate reader for TR-FRET every hour up to 4 hours.
Analysis was done using the standard curve by non-linear regression, variable slope inhibitor curve fits (Graph-Pad Prism) and EC50's of compounds were determined wherever possible.

LXR beta = target: T2, LXR beta (Homo sapiens, UniProt P55055); experiment: LXR beta agonist assay (Lanthascreen TR-FRET); format: biochemical; conditions: LXR beta-LBD 5 nM, read-out: LXR-β EC50
T2 construct: 5 μL of 4×LXR beta-LBD was added to each well (final concentration 5 nM); purchased Thermofisher PV4658
T2 sequence (P55055 222-460 limits assumed): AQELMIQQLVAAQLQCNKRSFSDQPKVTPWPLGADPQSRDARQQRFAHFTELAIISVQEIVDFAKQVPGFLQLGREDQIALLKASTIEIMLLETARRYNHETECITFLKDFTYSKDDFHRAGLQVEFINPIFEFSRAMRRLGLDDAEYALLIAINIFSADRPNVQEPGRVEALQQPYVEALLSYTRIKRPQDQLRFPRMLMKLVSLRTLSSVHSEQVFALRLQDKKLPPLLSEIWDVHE
Summary of the method: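 TR-FRET coactivator recruitment: 5 nM LXR beta-LBD with 100 nM Fl-D22 peptide and 10 nM Tb-anti-GST antibody (final) in Coregulator Buffer G, 60 min at 22° C, read hourly up to 4 hours. Duplicate three-fold titrations from 30 μM; EC50 by variable-slope nonlinear regression.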

HepG2 = experiment: Cell viability assay (resazurin) in HepG2; format: cell-based; conditions: Homo sapiens, 96 hr exposure
Experimental: as §1

A549 = experiment: Cell viability assay (resazurin) in A549; format: cell-based; conditions: Homo sapiens, 96 hr exposure
Experimental: as §1

THP1 = experiment: Cell viability assay in THP1; format: cell-based; conditions: Homo sapiens, THP-1
HCT116 = experiment: Cell viability assay (resazurin) in HCT116; format: cell-based; conditions: Homo sapiens, HCT-116; 96 hr exposure
Experimental: as §1

MCF7 = experiment: Cell viability assay (resazurin) in MCF7; format: cell-based; conditions: Homo sapiens, 96 hr exposure
Experimental: as §1

Row | SMILES | pIC50 (MDA-MB-231) | pEC50 (LXR alpha) | pEC50 (LXR beta) | pIC50 (HepG2) | pIC50 (A549) | pIC50 (THP1) | pIC50 (HCT116) | pIC50 (MCF7)
1 | CN(C)C(=O)c1ccc(N2CCN(C3CC4(C3)CN(C(=O)[C@](O)(c3ccccc3)C(F)(F)F)C4)CC2)cc1Cl (single isomer, unassigned) [Compound 1.17] | < 4.52 | 4.97 | 6.81 | 4.65 | < 4.52 | – | – | –
2 | CN(C)C(=O)c1ccc(N2CCN(C3CC4(C3)CN(C(=O)[C@@](O)(c3ccccc3)C(F)(F)F)C4)CC2)cc1Cl (single isomer, unassigned) [Compound 1.18] | – | 5.22 | 5.80 | – | – | – | – | –
3 | CC(C)[C@](O)(C(=O)N1CCC2(CC1)CN(C1CCN(c3ccc(C(=O)N(C)C)c(Cl)c3)CC1)C2)C(F)(F)F (single isomer, unassigned) [Compound 1.74] | – | 5.90 | 6.12 | < 4.52 | – | – | – | –
4 | CN(C)C(=O)c1ccc(N2CCN(C3CC4(C3)CN(S(=O)(=O)c3ccccc3C(F)(F)F)C4)CC2)cc1Cl [Compound 1.5, 2-chloro-N,N-dimethyl-4-(4-(2-(2-(trifluoromethyl)phenylsulfonyl)-2-azaspiro[3.3]heptan-6-yl)piperazin-1-yl)benzamide] | – | < 4.52 | 5.95 | – | – | – | – | –
5 | CN(C)C(=O)c1ccc(-c2nnc(C3=CCN(S(=O)(=O)c4ccccc4Cl)CC3)s2)cc1Cl [Compound 1.12, 2-chloro-4-(5-(1-(2-chlorophenylsulfonyl)-1,2,3,6-tetrahydropyridin-4-yl)-1,3,4-thiadiazol-2-yl)-N,N-dimethylbenzamide] | 4.82 | 5.39 | 6.68 | 4.84 | < 4.52 | – | – | –
6 | O=C(N1CCC(C2CCN(c3cc(Cl)c4c(=O)[nH]ccc4c3)CC2)CC1)[C@](O)(c1ccccc1)C(F)(F)F [Compound 1.19, (R)-8-chloro-6-(1′-(3,3,3-trifluoro-2-hydroxy-2-phenylpropanoyl)-4,4′-bipiperidin-1-yl)isoquinolin-1(2H)-one] | 5.14 | 6.39 | 6.35 | 5.43 | 5.16 | – | – | –
7 | O=C(N1CCC(N2CCN(c3cc(Cl)c4c(=O)[nH]ccc4c3)CC2)CC1)C1(c2ccccc2)CCC1 [Compound 1.29, 8-chloro-6-(4-(1-(1-phenylcyclobutanecarbonyl)piperidin-4-yl)piperazin-1-yl)isoquinolin-1(2H)-one] | – | 5.06 | 6.04 | – | – | – | – | –
8 | CC(C)C(O)(C(=O)N1CCC(N2CC(Nc3ccc(C(=O)N(C)C)c(Cl)c3)C2)CC1)C(F)(F)F (stereo not shown) [Compound 1.43, 2-chloro-4-(1-(1-(2-hydroxy-3-methyl-2-(trifluoromethyl)butanoyl)piperidin-4-yl)azetidin-3-ylamino)-N,N-dimethylbenzamide] | < 4.52 | – | 5.33 | – | < 4.52 | < 4.52 | < 4.52 | –
9 | CN(C)C(=O)c1ccc(N[C@H]2CCN(C3CCN(C(=O)[C@](O)(c4ccccc4)C(F)(F)F)CC3)C2)cc1Cl [Compound 1.46, 2-chloro-N,N-dimethyl-4-((S)-1-(1-((R)-3,3,3-trifluoro-2-hydroxy-2-phenylpropanoyl)piperidin-4-yl)pyrrolidin-3-ylamino)benzamide] | < 4.52 | – | < 4.52 | – | < 4.52 | < 4.52 | < 4.52 | –
10 | CN(C)C(=O)c1ccc(NC2CCN(C3CCN(C(=O)[C@](O)(c4ccccc4)C(F)(F)F)CC3)CC2)cc1Cl [Compound 1.47, (R)-2-chloro-N,N-dimethyl-4-(1′-(3,3,3-trifluoro-2-hydroxy-2-phenylpropanoyl)-1,4′-bipiperidin-4-ylamino)benzamide] | < 4.52 | – | 5.54 | – | < 4.52 | < 4.52 | < 4.52 | –
11 | CN(C)C(=O)c1ccc(NC2CN(C3CCN(C(=O)C4(c5ccc(F)cc5)CCC4)CC3)C2)cc1Cl [Compound 1.49, 2-chloro-4-(1-(1-(1-(4-fluorophenyl)cyclobutanecarbonyl)piperidin-4-yl)azetidin-3-ylamino)-N,N-dimethylbenzamide] | 4.83 | – | 4.80 | – | 4.82 | < 4.52 | 4.75 | –
12 | CN(C)C(=O)c1ccc(-c2nnc(N3CCC4(CCN(S(=O)(=O)c5ccccc5Cl)CC4)C3)s2)cc1Cl [Compound 1.50, 2-chloro-4-(5-(8-(2-chlorophenylsulfonyl)-2,8-diazaspiro[4.5]decan-2-yl)-1,3,4-thiadiazol-2-yl)-N,N-dimethylbenzamide] | 4.77 | – | – | 4.62 | 4.84 | 4.84 | 4.81 | 4.84
13 | CN(C)C(=O)c1ccc(-c2nnc(N3CC4(CCN(S(=O)(=O)c5ccccc5Cl)CC4)C3)s2)cc1Cl [Compound 1.51, 2-chloro-4-(5-(7-(2-chlorophenylsulfonyl)-2,7-diazaspiro [3.5]nonan-2-yl)-1,3,4-thiadiazol-2-yl)-N,N-dimethylbenzamide] | 5.26 | – | – | < 4.54 | 5.35 | 5.23 | 5.35 | 5.38
14 | CN(C)C(=O)c1ccc(NC2CN(C3CCN(C(=O)C4(c5c(F)cccc5Cl)CCCC4)CC3)C2)cc1Cl [Compound 1.56, 2-chloro-4-(1-(1-(1-(2-chloro-6-fluorophenyl)cyclopentanecarbonyl)piperidin-4-yl)azetidin-3-ylamino)-N,N-dimethylbenzamide] | 4.86 | – | – | 4.89 | 4.91 | 4.84 | 4.91 | 4.89
15 | CN(C)C(=O)c1ccc(OC2CN(C3CCN(C(=O)[C@](O)(c4ccccc4)C(F)(F)F)CC3)C2)cc1Cl [Compound 1.77, (R)-2-chloro-N,N-dimethyl-4-(1-(1-(3,3,3-trifluoro-2-hydroxy-2-phenylpropanoyl)piperidin-4-yl)azetidin-3-yloxy)benzamide] | – | 4.71 | 5.82 | < 4.52 | – | – | – | –
16 | CC1CC(N2CC(Nc3ccc(C(=O)N(C)C)c(Cl)c3)C2)CCN1S(=O)(=O)c1ccccc1Cl (stereo not shown) [Compound 1.84, 2-chloro-4-(1-(1-(2-chlorophenylsulfonyl)-2-methylpiperidin-4-yl)azetidin-3-ylamino)-N,N-dimethylbenzamide] | – | 4.79 | 5.94 | – | – | – | – | –
